From publication PMC6977399 (Clinical Pharmacology and Therapeutics, 2019)
Where two headings read alike, the source gives them in different places.

How the values were obtained:
CYP3A [1] = conditions: in the presence of fluconazole and voriconazole; cited from earlier work
[2] = cited from earlier work
[3] = both, human, plasma, oral, 2 mg
CYP3A [4] = tested on: CYP3A
[5] = Literature estimates of intestinal availability; parameters: species or system human; conditions: translated from FaFg 0.28
BCRP and OATP1B = experiment: Clinical DDI study part 2: effect of fenebrutinib on PK of rosuvastatin; conditions: both, human, plasma, oral
[6] = as above; conditions: both, human, plasma, oral, 20 mg
OATP1B and BCRP = conditions: clinical DDI study; cited from earlier work
[7] = MDZ coadministered with fenebrutinib 200 mg b.i.d. vs MDZ alone
[8] = both, human, plasma, oral, 2 mg

OCc1ncc2n1-c1ccc(Cl)cc1C(c1ccccc1F)=NC2 [1′‐hydroxymidazolam]
exposure increase in the presence of other CYP3A inhibitors (CYP3A [1]): ~ 1.5 fold

Cc1ncc2n1-c1ccc(Cl)cc1C(c1ccccc1F)=NC2 [MDZ, midazolam]
intestinal availability (FaFg) [2]: 48%
Cmax [3]: 8.54 ng/mL
half-life [3]: 6.23 h
AUC0−t, fold higher with fenebrutinib vs alone (CYP3A [4]; [7]): ~ 1.99 fold
Cmax, fold higher with fenebrutinib vs alone (CYP3A [4]; [7]): ~ 1.74 fold
half-life (CYP3A [4]; both, human, plasma, oral): 6.68 h
AUC(0-inf) (CYP3A [4]; [8]): 20.5 ng·h/mL
AUC(0-t) (CYP3A [4]; [8]): 19.2 ng·h/mL

CC(C)c1nc(N(C)S(C)(=O)=O)nc(-c2ccc(F)cc2)c1/C=C/[C@@H](O)C[C@@H](O)CC(=O)O [Rosuvastatin, rosuvastatin]
FaFg ([2]; estimated, ref Tanaka et al.23): 0.28
maximum AUC increase if FaFg increased to 1 with intestinal BCRP inhibition [5]: 3.6 fold
half-life (BCRP and OATP1B): 18.2 h
AUC(0-t) (BCRP and OATP1B; 20 mg): 91 ng·h/mL
AUC(0-inf) [6]: 93 ng·h/mL
Cmax [6]: 9.08 ng/mL
half-life [6]: 19.9 h
exposure increase in the presence of eltrombopag (OATP1B and BCRP): 55%
